pIC50: −log10 of the molar value.

In one assay the test system is HeLa cells. Kind of assay: MTS cell proliferation and/or cytotoxicity assay. Type of assay: cell-based, Human. The conditions noted are these: Homo sapiens, HeLa, 72 h, concentration at which 50% of antiproliferative cell response is seen; 3 days incubation; read-out: MTS Data Hella. Here is the method:
Cell culture. Human cervical epithelial cells (HeLa cells) were obtained from American Type Culture Collection (Manassas, Va.). Cells were grown in Eagle's minimum essential medium (MEM, Hyclone, Utah) supplemented with 2 mM Glutamine, 0.1 mM nonessential amino acid, 1 mM Na Pyruvate, 1.5 g/L NaHCO3, 50 mg/L gentamicin, and 10% fetal bovine serum (Hyclone, USA) in a humidified atmosphere of 5% CO2 at 37° C.
MTS assays. Antiproliferative effects of the compounds were tested by the CellTiter 96 AQueous assay (Promega, WI), which is a calorimetric assay for determining the number of viable cells. (See, e.g., Wang, L., et al., Methods Cell Sci (1996) 18:249-255). In one example, cells (4,500 cells/well) were seeded on 96 well flat bottom plates (Corning, N.Y.) in 100 μl of culture medium without any anticancer drug on day 0, and the culture medium was exchanged for that //contained anticancer drugs at various concentrations on day 1. After incubation for 3 days under normal growth conditions (on day 4), the monolayers were washed once in PBS, and the medium was switched to 100 μl of PBS in each of the 96 well plate. After mixing MTS and PMS at the ratio of 20:1, 20 μl of MTS/PMS solution was added to each of the 96 well plate and incubated for 4 hours in a humidified atmosphere of 5% CO2 at 37° C. The absorbance was read at 490 nm using FLUOstar Galaxy 96 well plate reader (BMG Labtechnologies, Germany). μM concentrations (MTS data) reported in Table 1 are concentrations at which 50% of antiproliferative cell response is seen.
Turning to `CN1CCCC1CCNC(=O)c1cn2c3c(c(NCCCN4CCOCC4)c(F)c(N)c3c1=O)Oc1cc3ccccc3cc1-2` (stereo not drawn) [compound 380], the pIC50 is 5.74.
The same measure, in the same setting: for `CN(C)CCCCNc1c(F)cc2c(=O)c(C(=O)NCCC3CCCN3C)cn3c4cc5c(cc4oc1c23)c(=O)c1ccccc15` (stereo not drawn) [compound 501] the value was 5.38; for `CN(C)CCCCNC(=O)c1cn2c3c(c(N4CC[C@H](N)C4)c(F)cc3c1=O)Oc1cc3ccccc3cc1-2` [compound 475], 6.62.
The same measure, in the same setting: for `O=C(NCCN1CCCC1)c1cn2c3c(c(NCCCN4CCOCC4)c(F)cc3c1=O)Oc1cc3c(O)ncnc3cc1-2` [compound 107] the value was 5.74.
The same measure, in the same setting: for `CN1CCCC1CCNC(=O)c1cn2c3c(c(N4CC5CCCNC5C4)c(F)cc3c1=O)Oc1cc3ccccc3cc1-2` (stereo not drawn) [compound 546] the value was 7.00.
For the compound `CC(C)(C)OC(=O)N[C@H]1CCN(c2c(F)cc3c(=O)c(C(=O)O)cn4c5cc6oc7cc([N+](=O)[O-])ccc7[nH]c6cc5oc2c34)C1` [compound 24], the pIC50 was 5.15.
On the same count and under the same terms, for `N[C@@H]1CCN(c2c(F)cc3c(=O)c(C(=O)NCCCN4CCOCC4)cn4c3c2Oc2cc3c(cc2-4)oc2ccccc23)C1` [compound 375] the value was 5.57; for `CN(C)CCCCNC(=O)c1cn2c3c(c(NCCCCN(C)C)c(F)cc3c1=O)Oc1cc3c(cc1-2)oc1ccccc13` [compound 367], 5.43.
On the same count and under the same terms, for `CN1CCCC1CCNC(=O)c1cn2c3cc4c(cc3oc3c(NCCN5CCCC5)c(F)cc(c1=O)c32)c(=O)c1ccccc14` (stereo not drawn) [compound 575] the value was 5.68.
On to `CN(C)CCCCNC(=O)c1cn2c3cc4c(cc3oc3c(NCCN5CCCC5)c(F)cc(c1=O)c32)c(=O)c1ccccc14` [compound 584], for which the pIC50 was 6.72.
On the same count and under the same terms, for `O=C(NCCN1CCOCC1)c1cn2c3c(c(NCCCN4CCOCC4)c(F)cc3c1=O)Oc1cc3c(cc1-2)oc1ccccc13` [compound 361] the value was 5.38; for `CN1CCCC1CCNC(=O)c1cn2c3c(c(NCCc4c[nH]cn4)c(F)cc3c1=O)Oc1cc3ccccc3cc1-2` (stereo not drawn) [compound 1468], 6.46.
On the same count and under the same terms, for `N[C@H]1CCN(c2c(F)cc3c(=O)c(C(=O)NCCCN4CCOCC4)cn4c5cc6c(cc5oc2c34)c(=O)c2ccccc26)C1` [compound 511] the value was 5.51.
For the compound `CN1CCN(CCCNC(=O)c2cn3c4c(c(NCCC5CCCN5C)c(F)cc4c2=O)Oc2cc4c(cc2-3)oc2ccccc24)CC1` (stereo not drawn) [compound 364], the pIC50 was 5.42.
Consider `CN1CCCC1CCNc1c(F)cc2c(=O)c(C(=O)NCCN3CCCC3)cn3c4cc5oc6cc([N+](=O)[O-])ccc6[nH]c5cc4oc1c23` (stereo not drawn) [compound 571], for which the pIC50 was 5.32.
Still for that read-out and setting: for `O=C(CN1CCCC1)N[C@@H]1CCN(c2c(F)cc3c(=O)c(C(=O)NCCN4CCCC4)cn4c3c2Oc2cc3c(cc2-4)oc2ccccc23)C1` [compound 506] the value was 5.47; for `CN1CCCC1CCNc1c(F)cc2c(=O)c(C(=O)NCCN3CCCC3)cn3c4cc5c(cc4oc1c23)c(=O)c1ccccc15` (stereo not drawn) [compound 527], 6.10; for `CN1CCCC1CCNC(=O)c1cn2c3c(c(N4CC[C@H](N)C4)c(N)cc3c1=O)Oc1cc3ccccc3cc1-2` (stereo partly drawn) [compound 526], 6.05.
The same measure, in the same setting: for `O=C(CCN1CCCC1)N[C@@H]1CCN(c2c(F)cc3c(=O)c(C(=O)NCCN4CCCC4)cn4c3c2Oc2cc3c(cc2-4)oc2ccccc23)C1` [compound 376] the value was 5.62; for `N[C@@H]1CCN(c2c(F)cc3c(=O)c(C(=O)NCCN4CCOCC4)cn4c3c2Oc2cc3ccccc3cc2-4)C1` [compound 390], 6.62; for `CN1CCCC1CCNC(=O)c1cn2c3c(c(NCCc4ccc(O)c(O)c4)c(F)cc3c1=O)Oc1cc3ccccc3cc1-2` (stereo not drawn) [compound 381], 5.74.

The target in a further assay is c-Myc template DNA (c-myc quadruplex). Kind of assay: Quadruplex binding / stop assay (Taq polymerase arrest, capillary electrophoresis). The conditions noted are these: read-out: Stop Data c-Myc μM; concentration at which 50% of the DNA was arrested (arrested:full-length 1:1).
In the case of `CN1CCCC1CCNC(=O)c1cn2c3c(c(NCCCN4CCOCC4)c(F)c(N)c3c1=O)Oc1cc3ccccc3cc1-2` (stereo not drawn) [compound 380], the IC50 is 0.75 µM.
Same read-out and setting: for `CN(C)CCCCNc1c(F)cc2c(=O)c(C(=O)NCCC3CCCN3C)cn3c4cc5c(cc4oc1c23)c(=O)c1ccccc15` (stereo not drawn) [compound 501] the value was 0.375 µM.
Regarding `CN(C)CCCCNC(=O)c1cn2c3c(c(N4CC[C@H](N)C4)c(F)cc3c1=O)Oc1cc3ccccc3cc1-2` [compound 475], the IC50 came out at 0.58 µM.
On the same count and under the same terms, for `O=C(NCCN1CCCC1)c1cn2c3c(c(NCCCN4CCOCC4)c(F)cc3c1=O)Oc1cc3c(O)ncnc3cc1-2` [compound 107] the value was 1.75 µM; for `CN1CCCC1CCNC(=O)c1cn2c3c(c(N4CC5CCCNC5C4)c(F)cc3c1=O)Oc1cc3ccccc3cc1-2` (stereo not drawn) [compound 546], 0.375 µM; for `CC(C)(C)OC(=O)N[C@H]1CCN(c2c(F)cc3c(=O)c(C(=O)O)cn4c5cc6oc7cc([N+](=O)[O-])ccc7[nH]c6cc5oc2c34)C1` [compound 24], 0.5 µM.
Turning to `N[C@@H]1CCN(c2c(F)cc3c(=O)c(C(=O)NCCCN4CCOCC4)cn4c3c2Oc2cc3c(cc2-4)oc2ccccc23)C1` [compound 375], the IC50 amounted to 0.75 µM.
The same measure, in the same setting: for `CN(C)CCCCNC(=O)c1cn2c3c(c(NCCCCN(C)C)c(F)cc3c1=O)Oc1cc3c(cc1-2)oc1ccccc13` [compound 367] the value was 0.75 µM; for `CN1CCCC1CCNC(=O)c1cn2c3cc4c(cc3oc3c(NCCN5CCCC5)c(F)cc(c1=O)c32)c(=O)c1ccccc14` (stereo not drawn) [compound 575], 0.18 µM.
The same measure, in the same setting: for `CN(C)CCCCNC(=O)c1cn2c3cc4c(cc3oc3c(NCCN5CCCC5)c(F)cc(c1=O)c32)c(=O)c1ccccc14` [compound 584] the value was 0.18 µM; for `O=C(NCCN1CCOCC1)c1cn2c3c(c(NCCCN4CCOCC4)c(F)cc3c1=O)Oc1cc3c(cc1-2)oc1ccccc13` [compound 361], 0.75 µM; for `CN1CCCC1CCNC(=O)c1cn2c3c(c(NCCc4c[nH]cn4)c(F)cc3c1=O)Oc1cc3ccccc3cc1-2` (stereo not drawn) [compound 1468], 0.375 µM.
On the same count and under the same terms, for `N[C@H]1CCN(c2c(F)cc3c(=O)c(C(=O)NCCCN4CCOCC4)cn4c5cc6c(cc5oc2c34)c(=O)c2ccccc26)C1` [compound 511] the value was 0.375 µM; for `CN1CCN(CCCNC(=O)c2cn3c4c(c(NCCC5CCCN5C)c(F)cc4c2=O)Oc2cc4c(cc2-3)oc2ccccc24)CC1` (stereo not drawn) [compound 364], 0.75 µM; for `CN1CCCC1CCNc1c(F)cc2c(=O)c(C(=O)NCCN3CCCC3)cn3c4cc5oc6cc([N+](=O)[O-])ccc6[nH]c5cc4oc1c23` (stereo not drawn) [compound 571], 0.18 µM.
As to `O=C(CN1CCCC1)N[C@@H]1CCN(c2c(F)cc3c(=O)c(C(=O)NCCN4CCCC4)cn4c3c2Oc2cc3c(cc2-4)oc2ccccc23)C1` [compound 506], the IC50 stood at 0.375 µM.
Consider `CN1CCCC1CCNc1c(F)cc2c(=O)c(C(=O)NCCN3CCCC3)cn3c4cc5c(cc4oc1c23)c(=O)c1ccccc15` (stereo not drawn) [compound 527], for which the IC50 is 0.375 µM.
Same read-out and setting: for `CN1CCCC1CCNC(=O)c1cn2c3c(c(N4CC[C@H](N)C4)c(N)cc3c1=O)Oc1cc3ccccc3cc1-2` (stereo partly drawn) [compound 526] the value was 0.375 µM; for `O=C(CCN1CCCC1)N[C@@H]1CCN(c2c(F)cc3c(=O)c(C(=O)NCCN4CCCC4)cn4c3c2Oc2cc3c(cc2-4)oc2ccccc23)C1` [compound 376], 0.75 µM; for `N[C@@H]1CCN(c2c(F)cc3c(=O)c(C(=O)NCCN4CCOCC4)cn4c3c2Oc2cc3ccccc3cc2-4)C1` [compound 390], 0.75 µM.
The same measure, in the same setting: for `CN1CCCC1CCNC(=O)c1cn2c3c(c(NCCc4ccc(O)c(O)c4)c(F)cc3c1=O)Oc1cc3ccccc3cc1-2` (stereo not drawn) [compound 381] the value was 0.75 µM.

The values are drawn from US7507727B2, “Substituted quinobenzoxazine analogs and methods of using thereof” (Cylene Pharmaceuticals, Inc., priority 2003, dated 2009).
